pEC50: −log10 of the molar value. Like-named read-outs stand apart in the source and are kept apart here.
Assays:
[1] = tested on: parental HEK cells; experiment: HEK parental Agonist Counterscreen Assay (non-transfected cells); format: cell-based; conditions: for Averaged Max % Response (±St. Dev.): activity relative to known control
Excerpt: The high control for the agonist counterscreen was Forskolin not acetylcholine.

[2] = biological target: T1, GPR139 (Homo sapiens, UniProt Q6DWJ6); experiment: GPR139 Agonist titration / agonist counterscreen assay (calcium detection, HEK-GPR139 cells); format: cell-based; parameters: expressed in transfected cells; host or cells: HEK Aequorin cells, Maxcyte transient transfection; conditions: GPR139 Agonist Activity; for pEC50: read-out: EC50; for Averaged Max % Response (±St. Dev.): activity relative to known control
T1 sequence (Q6DWJ6 1-353): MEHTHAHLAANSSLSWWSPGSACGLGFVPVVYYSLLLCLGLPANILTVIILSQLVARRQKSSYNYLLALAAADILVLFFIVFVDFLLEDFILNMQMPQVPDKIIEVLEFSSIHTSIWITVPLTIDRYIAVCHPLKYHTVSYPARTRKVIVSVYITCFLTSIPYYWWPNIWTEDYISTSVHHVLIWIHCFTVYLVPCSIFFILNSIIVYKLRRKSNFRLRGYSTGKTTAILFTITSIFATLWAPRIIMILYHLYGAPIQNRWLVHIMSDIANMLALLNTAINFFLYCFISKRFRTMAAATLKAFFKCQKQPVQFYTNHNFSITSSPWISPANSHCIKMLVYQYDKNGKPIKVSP
Protocol: GPR activity was assessed using a calcium detection assay. […] Negative control samples were treated with DMSO. […] Intracellular calcium was measured using Calcium 5.

[3] = Homo sapiens, HEK293, HEK Agonist Activity section of Table 4 (parental HEK counterscreen)
[4] = values printed in E-notation without unit
[5] = HEK Agonist Activity section of Table 4 (parental HEK counterscreen)
[6] = Homo sapiens, HEK293, HEK Agonist Activity, parental non-transfected HEK cells

| SMILES | Lipophilic Efficiency (logD) ([1]; HEK Agonist Activity section) | Lipophilic Efficiency (logP) ([1]; HEK Agonist Activity section) | Averaged Max % Response (±St. Dev.) ([1]; HEK Agonist Activity section) [%] | pEC50 [1, 3] | Efficiency Ligand [2] | Hill Slope [2] | Lipophilic Efficiency (logD) [2] | Lipophilic Efficiency (logP) [2] | Averaged Max % Response (±St. Dev.) [2] [%] | Lipophilic Efficiency (logD) ([1]; HEK Agonist Activity) | Lipophilic Efficiency (logP) ([1]; HEK Agonist Activity) | Averaged Max % Response (±St. Dev.) ([1]; HEK Agonist Activity) [%] | Lipophilic Efficiency (logD) ([2]; based on logD) | Lipophilic Efficiency (logP) ([2]; based on logP) | Hill Slope ([2]; fitted dose-response curve) | Efficiency Ligand ([2]; ligand efficiency) | pEC50 [2, 4] | other results |
| --- | --- | --- | --- | --- | --- | --- | --- | --- | --- | --- | --- | --- | --- | --- | --- | --- | --- | --- |
| Cc1ccc(Nc2cn[nH]c(=S)n2)c(C)c1 [SR-01000013346] | 2.37 | 1.95 | −4.67 ± 3.34 | < 4.84 | 0.54 | 0.99 | 3.66 | 3.24 | 74.67 ± 0.55 |  |  |  |  |  |  |  |  | pEC50 ([2]; HEK-GPR139 cells): 6.13 |
| CCCc1ccc(NC(=O)CCc2nc3c(c(=O)n2C)CCC3)cc1 [SR-01000017533] | 2.68 | 2.68 | −1.95 ± 4.81 | < 4.85 | 0.31 | 1.55 | 3.33 | 3.33 | 69.12 ± 3.13 |  |  |  |  |  |  |  |  |  |
| O=C(CC(c1ccccc1)c1ccccc1)Oc1coc(CSc2ncccn2)cc1=O [SR-01000020502] |  |  |  |  |  |  |  |  | 91.42 ± 14.52 | 0.13 | 0.13 | 4.84 ± 4.90 | 2.69 | 2.69 | 1.13 | 0.32 | 7.41 | pEC50 ([1]; HEK Agonist Activity, parental non-transfected HEK cells): < 4.86 |
| Cc1ccc(SCC(=O)Nc2nnc(-c3ccco3)o2)cc1 [SR-01000021414] | 2.38 | 2.38 | 22.31 ± 11.03 |  |  |  |  |  | 97.10 ± 8.84 |  |  |  | 4.46 | 4.46 | 0.83 | 0.44 | 6.93 | pEC50 [1, 5]: < 4.84 |
| Cc1ccc(SCC(=O)Nc2nnc(-c3ccccc3Cl)o2)cc1 [SR-01000021416] |  |  |  |  |  |  |  |  | 122.23 ± 2.65 | 0.84 | 0.84 | 23.13 ± 4.18 | 3.53 | 3.53 | 0.24 | 0.44 | 7.54 | pEC50 [1, 6]: < 4.85 |
| O=C(CSc1ccc(Cl)cc1)Nc1nnc(-c2ccco2)o1 [SR-01000021433] | 2.29 | 2.29 | 27.04 ± 4.04 | < 4.84 |  |  |  |  | 111.88 ± 11.27 |  |  |  | 4.59 | 4.59 | 0.56 | 0.45 | 7.14 |  |
| O=C(CSc1ccc(Cl)cc1)Nc1nnc(-c2ccc(F)cc2)o1 [SR-01000021435] | 1.22 | 1.22 | 24.48 ± 11.03 |  |  |  |  |  | 162.60 ± 13.73 |  |  |  | 3.60 | 3.60 |  | 0.42 | < 7.24 | pEC50 [1, 5]: < 4.86 |
| O=C(O)COc1cc(Br)c(Br)c(Br)c1O [SR-01000028953] | 5.29 | 1.52 | 1.36 ± 9.86 | < 4.82 | 0.54 | 0.80 | 6.30 | 2.53 | 88.05 ± 4.24 |  |  |  |  |  |  |  |  |  |
| O=C(CN1CCCc2ccccc21)NNC(=O)Nc1ccc(Cl)c(Cl)c1 [SR-01000029575] | 1.09 | 1.08 | 7.49 ± 5.72 | < 4.84 |  |  |  |  | 96.54 ± 7.56 |  |  |  | 3.35 | 3.34 | 0.79 | 0.38 | 7.11 |  |
| CC(=O)c1cccc(C(C)(C)CC(=O)CNC(=O)c2ccccc2)c1 [SR-01000031674] |  |  |  |  |  |  |  |  | 113.33 ± 7.65 | 2.46 | 2.46 | 35.54 ± 2.15 | 6.57 | 6.57 | 0.44 | 0.50 |  | pEC50 [1, 6]: < 4.82 |

— patent publication US20250099420A1, “SMALL MOLECULE MODULATORS OF GPR139 COMPLEX” (University of Florida Research Foundation, Incorporated, priority 2022, published 2025)
